pIC50: −log10 of the molar value.
Assays:
[1] = tested on: HiBit-tagged HTT in K562 cells; assay: HiBiT protein abundance assay, HTT; format: cell-based, human; details: HiBiT-modified K562 cells, 24 hours, luminescence
Experimental: (§1) Compounds described herein were used to screen for effects on quantitative protein abundance using a HiBit assay system (Promega). Quantitative protein abundance was determined by measuring the protein levels of HiBit-tagged protein targets expressed in cell culture via luminescence using the Nano-Glo HiBiT Lytic Detection System, which uses a split complementation assay format to reconstitute NanoBiT enzyme to generate a luminescent signal. A protein abundance assay was developed such that endogenous protein targets could be modified with the HiBiT peptide tag and their abundance could be assessed after compound treatment. Briefly, K562 cell lines containing a HiBiT-modification were treated with various compounds described herein (e.g., compounds of Formulas (I)). After treatment for 24 hours, the protein abundance of a specific target was determined by measuring luminescence.
(§2) Cells were maintained in IMDM with 10% FBS. Before the assay, cells were diluted with […] growth media (IMDM+[…] media) and were seeded in a 384-well plate at a density of 10000 cells/well (for each cell line listed in Table 8). Each compound was prepared as a 10-point 3-fold serial dilution in DMSO with the top dose at a final concentration of 10 μM in the well. Unmodified K562 cells were added at the previously specified density with DMSO to serve as an assay baseline and positive control (PC) and DMSO only with the respective modified cell lines was added to the negative control (NC) columns. Final DMSO concentration was kept at or below 0.25% o. Treated cell plates were placed in an incubator at 37° C. with […] for 24 hours. After 24 hours, 25 μL of Complete HiBit Lytic reagent was added to each well at room temperature (e.g. one plate requiring 10 mL Lytic Buffer, 100 μL LgBiT Protein, 200 μL Lytic Substrate), shaken for 5 minutes at 600 RPM, then left to sit for 10 minutes for signal to stabilize before reading on a Spark Cyto plate reader (Tecan) with a 500 ms measurement time.
(§3) To determine compound effects on protein abundance of each target in Table 9, the percent response for each respective cell line was calculated at each compound concentration as follows:
(§4) For the normalized response at each concentration, a four-parameter logistical regression was fit to the data and the response was interpolated at the […] to determine a concentration for protein abundance at 50% o (IC50) the untreated control.

[2] = tested on: HiBit-tagged MYB in K562 cells; assay: HiBiT protein abundance assay, MYB; format: cell-based, human; details: HiBiT-modified K562 cells, 24 hours, luminescence
Experimental: as §1, §2, §3, §4

[3] = tested on: Target C; assay: Gene panel canonical junction qPCR assay, Target C CJ mRNA (Table 7); format: cell-based, human; details: Homo sapiens, read-out: Target C CJ mRNA decrease IC50
In short: (§5)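 Read-out is the IC50 for loss of canonical-junction mRNA, fitted with a four-parameter logistic curve to percentage response. Response came from RT-qPCR on compound-treated A673 or K562 cell lysates, ΔCt against a housekeeping gene and normalized to DMSO.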

[4] = tested on: HTT; assay: RT-qPCR splicing assay, HTT AJ/CJ mRNA; format: cell-based, human; details: A673 or K562 cells; for pIC50: decrease in canonical junction mRNA; for AC50: increase in alternative junction mRNA
In short: (§6)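 A673 or K562 cells were treated for 24 h at 37° C with an 11-point 3-fold compound series (top 10 uM, DMSO ≤0.25%). Lysates underwent RT-qPCR for the canonical (CJ) and alternative-exon (AJ) junctions, normalized to GAPDH, GUSB or PPIA, then to DMSO (ΔΔCt), giving RQ and percentage response.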

[5] = tested on: HTT; assay: Gene panel canonical junction qPCR assay, HTT CJ mRNA (Table 7); format: cell-based, human; details: read-out: HTT CJ mRNA decrease IC50
In short: as §5

[6] = tested on: HiBit-tagged Target C in K562 cells; assay: HiBiT protein abundance assay, Target C; format: cell-based, human; details: HiBiT-modified K562 cells, 24 hours, luminescence
Experimental: as §1, §2, §3, §4

[7] = tested on: MYB; assay: RT-qPCR splicing assay, MYB AJ/CJ mRNA; format: cell-based; details: Homo sapiens, A673 or K562 cells, 24 hours; for pIC50: decrease in canonical junction mRNA; for AC50: increase in alternative junction mRNA
In short: as §6

[8] = tested on: SMN2; assay: Gene panel canonical junction qPCR assay, SMN2 CJ mRNA (Table 7); format: cell-based; details: Homo sapiens, read-out: SMN2 CJ mRNA decrease IC50
In short: as §5

[9] = tested on: MYB; assay: Gene panel canonical junction qPCR assay, MYB CJ mRNA (Table 7); format: cell-based; details: Homo sapiens, read-out: MYB CJ mRNA decrease IC50
In short: as §5

Row | pIC50 [3] | pIC50 ([4]; Homo sapiens, 24 h) | pIC50 ([5]; Homo sapiens) | pIC50 [7] | pIC50 [8] | pIC50 [9] | SMILES | pIC50 [1] | pIC50 [2] | pIC50 ([4]; 24 hours) | AC50 ([4]; 24 hours) [nM] | pIC50 [5] | pIC50 [6] | AC50 ([4]; Homo sapiens, 24 h) [nM] | AC50 [7] [nM]
1 | < 5.00 | < 5.00 | < 5.00 | < 5.00 | < 5.00 | < 5.00 | CC(C)(C)NC1CCN(c2ccc3c(n2)OCc2cc(-c4c(F)cn[nH]c4=O)ccc2-3)C1 (centres unmarked) [Compound 315, 4-{3-[3-(tert-butylamino)pyrrolidin-1-yl]-6H-isochromeno[3,4-b]pyridin-8-yl}-5-fluoro-2H-pyridazin-3-one] | – | – | – | – | – | – | > 10000 | > 10000
2 | 6.00 to 7.00 | 6.00 to 7.00 | 6.00 to 7.00 | 6.00 to 7.00 | > 7.00 | 6.00 to 7.00 | COc1cc(-c2ccc3c(c2)COc2nc(N4CCN[C@H](C(C)(C)C)C4)ccc2-3)cnn1 [Compound 317, 5-{3-[(3R)-3-tert-butylpiperazin-1-yl]-6H-isochromeno [3,4-b]pyridin-8-yl}-3-methoxypyridazine] | – | – | – | – | – | – | 100 to 1000 | 100 to 1000
3 | 5.00 to 6.00 | 6.00 to 7.00 | 6.00 to 7.00 | 5.00 to 6.00 | 6.00 to 7.00 | 5.00 to 6.00 | CCN(CC)C1CCN(c2ccc3c(n2)OCc2cc(-c4cnnc(OC)c4)ccc2-3)C1 (centres unmarked) [Compound 321] | – | – | – | – | – | – | 100 to 1000 | 1000 to 10000

The next lines start with the molecule.

Row | SMILES | pIC50 [3] | pIC50 ([4]; Homo sapiens, 24 h) | pIC50 ([5]; Homo sapiens) | pIC50 [7] | pIC50 [8] | pIC50 [9] | pIC50 [1] | pIC50 [2] | pIC50 ([4]; 24 hours) | AC50 ([4]; 24 hours) [nM] | pIC50 [5] | pIC50 [6] | AC50 ([4]; Homo sapiens, 24 h) [nM] | AC50 [7] [nM]
4 | c1cnn(-c2ccc3c(c2)OCc2nc(N[C@@H]4C[C@H]5CC[C@@H](C4)N5)ccc2-3)c1 [Compound 119] | 5.00 to 6.00 | – | – | – | – | – | 6.00 to 7.00 | 5.00 to 6.00 | < 5.00 | > 10000 | < 5.00 | 5.00 to 6.00 | – | –
5 | CC1(C)CC(Nc2ccc3c(n2)CCOc2cc(-c4cn[nH]c4)ccc2-3)CC(C)(C)N1 [Compound 141] | 5.00 to 6.00 | < 5.00 | < 5.00 | – | – | – | 5.00 to 6.00 | > 7.00 | – | – | – | 5.00 to 6.00 | > 10000 | –
6 | COc1cc(-c2ccc3c(c2)COc2nc(N4CCC(NC(C)(C)C(C)C)C4)ccc2-3)cnn1 (centres unmarked) [Compound 316, N-(2,3-dimethylbutan-2-yl)-1-[8-(6-methoxypyridazin-4-yl)-6H-isochromeno[3,4-b]pyridin-3-yl]pyrrolidin-3-amine] | 6.00 to 7.00 | > 7.00 | > 7.00 | 6.00 to 7.00 | > 7.00 | 6.00 to 7.00 | – | – | – | – | – | – | 100 to 1000 | 100 to 1000
7 | COc1cc(-c2ccc3c(c2)COc2nc(N4CCN[C@@H](C(C)(C)C)C4)ccc2-3)cnn1 [Compound 318, 5-{3-[(3S)-3-tert-butylpiperazin-1-yl]-6H-isochromeno[3,4-b]pyridin-8-yl}-3-methoxypyridazine] | 6.00 to 7.00 | > 7.00 | > 7.00 | 6.00 to 7.00 | > 7.00 | 6.00 to 7.00 | – | – | – | – | – | – | 100 to 1000 | 100 to 1000
8 | COc1cc(-c2ccc3c(c2)COc2nc(N4CCC(N(C)C5CC5)C4)ccc2-3)cnn1 (centres unmarked) [Compound 320] | 5.00 to 6.00 | 5.00 to 6.00 | 5.00 to 6.00 | < 5.00 | 6.00 to 7.00 | < 5.00 | – | – | – | – | – | – | 1000 to 10000 | 1000 to 10000

Source: patent US20240400584A1, “COMPOUNDS AND METHODS FOR MODULATING SPLICING” (REMIX THERAPEUTICS INC., priority 2021, published 2024)
